Experiments:
[1] = SPLP (EPA method 1312) leachability of PFAS in biosolids amended soil; format: physicochemical; conditions: for percentage of SPLP leachable PFAS in biosolids amended soil: without a sorbent, Day-80, pH 4.2
Experimental: PFAS in the freeze-dried timothy-grass shoots were extracted by MTBE-NaOH according to a previously developed method. Before extraction, each sample for extraction was spiked with 10 ng of 13C2-PFHxA as the surrogate for determining the extraction efficiency. EPA method 1312 (Synthetic Precipitation Leaching Procedure, SPLP) was performed on the biosolids amended soil after drying to determine the leachability of PFAS. Briefly, 20 mL of H2SO4/HNO3 reagent (60/40 wt/wt.) at pH=4.2 were added to the soil sample. The soil with the H2SO4/HNO3 reagent was then vortexed for 30s and shaken on an end over end mixer overnight. After centrifugation at 3500 g for 30 min, the supernatant was collected and subject to solid phase extraction (SPE) using HyperSep C18 cartridges (Thermo Scientific, Waltham, MA). The SPLP leachable PFAS on the C18 cartridges were eluted with 2 mL of methanol, followed by 2 mL of 0.1% NH40H amended methanol. The SPLP leachable PFAS in clean soil without biosolids amendment were analyzed as well. PFAS in the final plant extracts and SPLP leachates were quantified using a 1290 Infinity II LC system coupled with a 6470 Triple Quad Mass Spectrometer (LC-MS/MS, Agilent Technologies, Santa Clara, CA, USA).
FIG. 3 is a series of graphs 40 of percentages of leachable PFAS in biosolids-amended soil treated by different sorbents on Day-80 (n=3). Different letters represent significant differences among the treatments (p<0.05). […] Without a sorbent, almost 100% of leaching of PFHxA 42, PFHpA 44 and PFOA 46 was observed. Similarly to PFAS uptake by the shoots, a chain length effect was visible: the shorter the carbon chain of PFAS, the higher the leachability. […] Compared to PFAS concentrations in the shoots (FIG. 1), there was no positive correlation between acidic water leachable PFAS and the extent of shoot uptake for treatment with biochar at both doses and RemBind at the dose of 0.2%. Thus, results from SPLP at pH=4.2 for sites east of the Mississippi River may not be able to predict bioavailable PFAS to the studied grass. The SPLP is an established and widely adopted EPA method for investigating leaching of organic contaminants in soil. One should note that the acidic water used in the leaching procedure may actually decrease PFAS leaching due to the acidic nature of PFAAs. But since the focus here was to evaluate the effect of different sorbents toward stabilizing PFAS in soil amended by biosolids, the SPLP served our purpose well.

[2] = system: timothy-grass (Phleum pratense); assay: uptake of PFAS by timothy-grass shoots grown in biosolids-amended soil treated by a sorbent or SDS; format: in vivo
Source text: The method uses the addition of a mobilizing reagent, at a predetermined dose as described herein, to amend the soil around a root system of one or more plants. The supplementing of the amended soil with a stabilizing reagent at a predetermined dose, as also defined below. In one embodiment, the preparation of biosolids amended soil uses a sandy loam soil used in this study (pH=7.56), which was collected from a local farm in Albany County, New York. The soil was passed through a 2-mm sieve before use. The contents of natural organic matter and total organic carbon of the sieved soil were 4.82±0.12% and 2.44±0.45%, respectively. The sieved soil was mixed with vermiculite in a 1:1 vol ratio for increasing water retention of the soil and improving soil aeration. Then, the processed soil for plant cultivation was distributed to 7-quart polypropylene containers (14.375″L×8.25″W×6″H). Each container had 1.3 kg of dry soil.
The biosolids after anaerobic digestion of sludge were collected from a nearby wastewater treatment plant close to University at Albany. The total solid and total organic carbon of the biosolids were 24.16±0.21% and 28.64±0.28%, respectively. […]
Timothy-grass seeds were purchased from OrOlam LLC (South Miami, FL). […] Around 1 g of the plant tissues from each treatment was used for chlorophyll extraction and quantification. […]

[3] = system: timothy-grass (Phleum pratense); assay: chlorophyll content of timothy-grass shoots; format: in vivo; conditions: mobilization treatment with SDS
Experimental: Timothy-grass seeds were purchased from OrOlam LLC (South Miami, FL). One gram of seeds was sown evenly in each tank containing the prepared biosolids amended soil. Enough water was then added to each tank to reach 100% of field capacity. The plants were cultivated in a greenhouse and watered every day. The timothy-grass started germinating on the 5th day after sowing. On Day-40 after seed germination, the above-ground shoots of the grass in each tank were cut and rinsed thoroughly using deionized water. Around 1 g of the plant tissues from each treatment was used for chlorophyll extraction and quantification. The remaining plant shoots were freeze-dried at −37° C. for 48 h and subject to PFAS extraction and analysis. The plants after cutting were kept under the same growth condition. On Day-80 after seed germination or day-40 after the first cut, the plant shoots were removed again and subject to chlorophyll and PFAS analysis. […]
On Day-40 and Day-80 after seed germination, 100 mg of fresh grass leaves were collected and used to quantify chlorophyll content. […] After 48 h, the chlorophyll concentration in the solvent was determined using a UV-Vis spectrophotometer (GENESYS 10S, Thermo Fisher Scientific, altham, MA, USA). The absorbance was read at 664 and 647 nm and used to calculate chlorophyll a and b and total chlorophyll content according to these equations: […]

| SMILES | percentage of SPLP leachable PFAS in biosolids amended soil [1] | effect on acidic water leachable PFAS in biosolids amended soil ([1]; SDS at a dose up to 100 mg/kg) | effect on uptake of PFAS by the shoots ([2]; SDS 100 mg/kg, Day-40, exceptions PFOA and PFOS) | effect on ΣPFAS uptake by the shoots ([2]; SDS, all three doses (10, 50, 100 mg/kg), Day-80) | effect on chlorophyll content in timothy-grass [3] |
| --- | --- | --- | --- | --- | --- |
| O=C(O)C(F)(F)C(F)(F)C(F)(F)C(F)(F)C(F)(F)C(F)(F)F [PFHpA, perfluoroheptanoic acid] | ~100% |  |  |  |  |
| O=C(O)C(F)(F)C(F)(F)C(F)(F)C(F)(F)C(F)(F)F [PFHxA, perfluorohexanoic acid] | ~100% |  |  |  |  |
| O=C(O)C(F)(F)C(F)(F)C(F)(F)C(F)(F)C(F)(F)C(F)(F)C(F)(F)F [PFOA, perfluorooctanoic acid] | ~100% |  |  |  |  |
| CCCCCCCCCCCCOS(=O)(=O)[O-].[Na+] [SDS, sodium dodecyl sulphate] |  | did not significantly increase | significantly higher uptake of PFAS | significantly higher PFAS uptake | did not change the chlorophyll content |

Source: patent US20240368049A1, “ENHANCED PHYTOREMEDIATION FROM BIOAVAILABILITY OF PER- AND POLYFLUOROALKYL SUBSTANCES IN CONTAMINATED SOIL” (The Research Foundation for the State University of New York, priority 2023, published 2024)
